{"source": "PubChem BioAssay (NCI)", "assay_in_all_cases": "NCI tumour cell line growth inhibition, 48 h", "key": {"UO-31 renal": {"system": "UO-31 renal"}, "UACC-257 melanoma": {"system": "UACC-257 melanoma"}, "KM12 colon": {"system": "KM12 colon"}, "SK-MEL-28 melanoma": {"system": "SK-MEL-28 melanoma"}, "IGROV1 ovarian": {"system": "IGROV1 ovarian"}, "NCI/ADR-RES ovarian": {"system": "NCI/ADR-RES ovarian"}, "SF-268 CNS": {"system": "SF-268 CNS"}, "CAKI-1 renal": {"system": "CAKI-1 renal"}, "HS 578T breast": {"system": "HS 578T breast"}, "SNB-75 CNS": {"system": "SNB-75 CNS"}, "HCT-116 colon": {"system": "HCT-116 colon"}, "SN12C renal": {"system": "SN12C renal"}, "SW-620 colon": {"system": "SW-620 colon"}, "TK-10 renal": {"system": "TK-10 renal"}, "SNB-19 CNS": {"system": "SNB-19 CNS"}, "LOX IMVI melanoma": {"system": "LOX IMVI melanoma"}, "A549 NSCLC": {"system": "A549 NSCLC"}, "U251 CNS": {"system": "U251 CNS"}, "SK-MEL-5 melanoma": {"system": "SK-MEL-5 melanoma"}, "EKVX NSCLC": {"system": "EKVX NSCLC"}, "M14 melanoma": {"system": "M14 melanoma"}, "SK-OV-3 ovarian": {"system": "SK-OV-3 ovarian"}, "MOLT-4 leukemia": {"system": "MOLT-4 leukemia"}, "OVCAR-5 ovarian": {"system": "OVCAR-5 ovarian"}, "HCC-2998 colon": {"system": "HCC-2998 colon"}, "HL-60(TB) leukemia": {"system": "HL-60(TB) leukemia"}, "HOP-92 NSCLC": {"system": "HOP-92 NSCLC"}, "HOP-62 NSCLC": {"system": "HOP-62 NSCLC"}}, "note": "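Step 1: Grow cells in 96-well plates. Step 2: Expose to compound for 48 hours at 5 concentrations. Step 3: Interpolate endpoints linearly; if unreached, use highest concentration. GI50: concentration for 50% inhibition of growth. Definition used: TGI = concentration required for complete inhibition of growth.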"}
{"smiles": "COc1cc2c3c(n(CCCNCC4CC4)c(=O)c2cc1OC)-c1cc2c(cc1C3=O)OCO2", "values": [{"measurement": "GI50", "setting": "UO-31 renal", "value": 1410, "unit": "nM"}, {"measurement": "TGI", "setting": "UO-31 renal", "value": 2790, "unit": "nM"}, {"measurement": "GI50", "setting": "UACC-257 melanoma", "value": 13600, "unit": "nM"}, {"measurement": "TGI", "setting": "UACC-257 melanoma", "value": 26700, "unit": "nM"}, {"measurement": "GI50", "setting": "KM12 colon", "value": 1370, "unit": "nM"}, {"measurement": "TGI", "setting": "KM12 colon", "value": 3120, "unit": "nM"}, {"measurement": "GI50", "setting": "SK-MEL-28 melanoma", "value": 14800, "unit": "nM"}, {"measurement": "TGI", "setting": "SK-MEL-28 melanoma", "value": 28800, "unit": "nM"}, {"measurement": "GI50", "setting": "IGROV1 ovarian", "value": 1160, "unit": "nM"}, {"measurement": "TGI", "setting": "IGROV1 ovarian", "value": 2750, "unit": "nM"}, {"measurement": "GI50", "setting": "NCI/ADR-RES ovarian", "value": 1070, "unit": "nM"}, {"measurement": "TGI", "setting": "NCI/ADR-RES ovarian", "value": 2890, "unit": "nM"}, {"measurement": "GI50", "setting": "SF-268 CNS", "value": 764, "unit": "nM"}, {"measurement": "TGI", "setting": "SF-268 CNS", "value": 2490, "unit": "nM"}, {"measurement": "GI50", "setting": "CAKI-1 renal", "value": 990, "unit": "nM"}, {"measurement": "TGI", "setting": "CAKI-1 renal", "value": 2150, "unit": "nM"}, {"measurement": "GI50", "setting": "HS 578T breast", "value": 18800, "unit": "nM"}, {"measurement": "TGI", "setting": "HS 578T breast", "value": 59600, "unit": "nM"}, {"measurement": "GI50", "setting": "SNB-75 CNS", "value": 1740, "unit": "nM"}, {"measurement": "TGI", "setting": "SNB-75 CNS", "value": 19600, "unit": "nM"}, {"measurement": "GI50", "setting": "HCT-116 colon", "value": 1140, "unit": "nM"}, {"measurement": "TGI", "setting": "HCT-116 colon", "value": 2540, "unit": "nM"}, {"measurement": "GI50", "setting": "SN12C renal", "value": 1370, "unit": "nM"}, {"measurement": "TGI", "setting": "SN12C renal", "value": 3230, "unit": "nM"}, {"measurement": "GI50", "setting": "SW-620 colon", "value": 573, "unit": "nM"}, {"measurement": "TGI", "setting": "SW-620 colon", "value": 2190, "unit": "nM"}, {"measurement": "GI50", "setting": "TK-10 renal", "value": 15600, "unit": "nM"}, {"measurement": "TGI", "setting": "TK-10 renal", "value": 29200, "unit": "nM"}, {"measurement": "GI50", "setting": "SNB-19 CNS", "value": 781, "unit": "nM"}, {"measurement": "TGI", "setting": "SNB-19 CNS", "value": 2470, "unit": "nM"}, {"measurement": "GI50", "setting": "LOX IMVI melanoma", "value": 349, "unit": "nM"}, {"measurement": "TGI", "setting": "LOX IMVI melanoma", "value": 1890, "unit": "nM"}, {"measurement": "GI50", "setting": "A549 NSCLC", "value": 1220, "unit": "nM"}, {"measurement": "TGI", "setting": "A549 NSCLC", "value": 2570, "unit": "nM"}, {"measurement": "GI50", "setting": "U251 CNS", "value": 473, "unit": "nM"}, {"measurement": "TGI", "setting": "U251 CNS", "value": 1890, "unit": "nM"}, {"measurement": "GI50", "setting": "SK-MEL-5 melanoma", "value": 10100, "unit": "nM"}, {"measurement": "TGI", "setting": "SK-MEL-5 melanoma", "value": 21800, "unit": "nM"}, {"measurement": "GI50", "setting": "EKVX NSCLC", "value": 1780, "unit": "nM"}, {"measurement": "TGI", "setting": "EKVX NSCLC", "value": 3480, "unit": "nM"}, {"measurement": "GI50", "setting": "M14 melanoma", "value": 1090, "unit": "nM"}, {"measurement": "TGI", "setting": "M14 melanoma", "value": 2380, "unit": "nM"}, {"measurement": "GI50", "setting": "SK-OV-3 ovarian", "value": 1050, "unit": "nM"}, {"measurement": "TGI", "setting": "SK-OV-3 ovarian", "value": 7630, "unit": "nM"}, {"measurement": "GI50", "setting": "MOLT-4 leukemia", "value": 38.5, "unit": "nM"}, {"measurement": "TGI", "setting": "MOLT-4 leukemia", "value": 1540, "unit": "nM"}, {"measurement": "GI50", "setting": "OVCAR-5 ovarian", "value": 1740, "unit": "nM"}, {"measurement": "TGI", "setting": "OVCAR-5 ovarian", "value": 3290, "unit": "nM"}, {"measurement": "GI50", "setting": "HCC-2998 colon", "value": 1240, "unit": "nM"}, {"measurement": "TGI", "setting": "HCC-2998 colon", "value": 2550, "unit": "nM"}, {"measurement": "GI50", "setting": "HL-60(TB) leukemia", "value": 1470, "unit": "nM"}, {"measurement": "TGI", "setting": "HL-60(TB) leukemia", "value": 3250, "unit": "nM"}, {"measurement": "GI50", "setting": "HOP-92 NSCLC", "value": 9320, "unit": "nM"}, {"measurement": "TGI", "setting": "HOP-92 NSCLC", "value": 21900, "unit": "nM"}, {"measurement": "GI50", "setting": "HOP-62 NSCLC", "value": 354, "unit": "nM"}, {"measurement": "TGI", "setting": "HOP-62 NSCLC", "value": 1600, "unit": "nM"}]}
